From ChEMBL document CHEMBL2401646 (Bioorg Med Chem Lett, 2013)
Active and inactive are the calls of the source. No cut-off for these calls is given here.

How the values were obtained:
KARPAS-299 [1] = assay: Antitumor activity against human KARPAS299 xenograft model assessed as tumor growth inhibition at 50 mg/kg qd; format: functional; conditions: read-out: TGI
Homo sapiens [2] = organism: Homo sapiens; assay: Ratio of IC50 for cMET Y1230H mutant (unknown origin) to IC50 for wild type cMET (unknown origin)
Homo sapiens [3] = organism: Homo sapiens; assay: Ratio of IC50 for cMET Y1230C mutant (unknown origin) to IC50 for wild type cMET (unknown origin)
Mus musculus [4] = assay: Inhibition of MET autophosphorylation at Y1349 in human MKN45 cells xenografted in mouse at 100 mg/kg, po up to 8 hrs; format: functional, organism-based; design: dose 100 mg/kg; conditions: MKN-45
KARPAS-299 [5] = assay: Antitumor activity against human KARPAS299 xenograft model assessed as tumor growth inhibition up to 200 mg/kg qd; format: functional, organism-based; design: dose 200 mg/kg
[6] = biological target: Tyrosine-protein kinase ABL1 (Homo sapiens) (UniProt P00519); conditions: 1 uM
Description: Inhibition of Abl (unknown origin) autophosphorylation at 1 uM

Homo sapiens [7] = organism: Homo sapiens; conditions: 1 uM
Description: Inhibition of aurora kinase (unknown origin) autophosphorylation at 1 uM

[8] = biological target: Tyrosine-protein kinase ABL2 (Homo sapiens) (UniProt P42684); conditions: 1 uM
Description: Inhibition of ARG (unknown origin) autophosphorylation at 1 uM

[9] = biological target: Hepatocyte growth factor receptor (Homo sapiens, UniProt P08581); conditions: 1 uM
Description: Inhibition of cMET (unknown origin) autophosphorylation at 1 uM

[10] = Permeability of the compound at pH 7.4 by PAMPA; format: ADME; conditions: read-out: permeability
MKN-45 [11] = assay: Antiproliferative activity against human MKN45 cells after 3 days by CellTiter-Glo assay; format: functional, cell-based; conditions: MKN-45, 72 h
Cytochrome P450 3A4 = Cytochrome P450 3A4 (Homo sapiens, UniProt P08684); assay: Inhibition of CP3A4 (unknown origin)
[12] = Half life in CD1 mouse at 2 mg/kg, iv; format: ADME, organism-based; design: dose 2 mg/kg, route intravenous; conditions: in vivo
[13] = Volume of distribution at steady state in CD1 mouse at 2 mg/kg, iv; format: ADME, organism-based; design: dose 2 mg/kg, route intravenous; conditions: in vivo, read-out: Vdss
[14] = Clearance in CD1 mouse at 2 mg/kg, iv; format: ADME, organism-based; design: dose 2 mg/kg, route intravenous; conditions: in vivo
Mus musculus [15] = assay: Toxicity in human MKN45 cells xenografted nu/nu CD1 mouse model assessed as body weigh loss at 200 mg/kg, po qd for 14 days; format: organism-based, MKN-45; design: dose 200 mg/kg, route oral; conditions: in vivo, 336 h
Mus musculus [16] = assay: Toxicity in human MKN45 cells xenografted nu/nu CD1 mouse model assessed as body weigh loss at 100 mg/kg, po qd for 14 days; format: organism-based, MKN-45; design: dose 100 mg/kg, route oral; conditions: in vivo, 336 h
Mus musculus [17] = assay: Toxicity in human MKN45 cells xenografted nu/nu CD1 mouse model assessed as body weigh loss at 50 mg/kg, po qd for 14 days; format: organism-based, MKN-45; design: dose 50 mg/kg, route oral; conditions: in vivo, 336 h
Mus musculus [18] = assay: Toxicity in human MKN45 cells xenografted nu/nu CD1 mouse model assessed as body weigh loss at 25 mg/kg, po qd for 14 days; format: organism-based, MKN-45; design: dose 25 mg/kg, route oral; conditions: in vivo, 336 h
MKN-45 [19] = assay: Antitumor activity against human MKN45 cells xenografted in nu/nu CD1 mouse model assessed as maximum tumor regression at 200 mg/kg, po qd for 14 days; format: functional
MKN-45 [20] = assay: Antitumor activity against human MKN45 cells xenografted in nu/nu CD1 mouse model assessed as maximum tumor regression at 100 mg/kg, po qd for 14 days; format: functional
MKN-45 [21] = assay: Antitumor activity against human MKN45 cells xenografted in nu/nu CD1 mouse model assessed as maximum tumor regression at 50 mg/kg, po qd for 14 days; format: functional
MKN-45 [22] = assay: Antitumor activity against human MKN45 cells xenografted in nu/nu CD1 mouse model assessed as maximum tumor regression at 25 mg/kg, po qd for 14 days; format: functional
MKN-45 [23] = assay: Antitumor activity against human MKN45 cells xenografted in nu/nu CD1 mouse model assessed as tumor growth inhibition at 200 mg/kg, po qd for 14 days; format: functional; conditions: MKN-45, 336 h, read-out: TGI
MKN-45 [24] = assay: Antitumor activity against human MKN45 cells xenografted in nu/nu CD1 mouse model assessed as tumor growth inhibition at 100 mg/kg, po qd for 14 days; format: functional; conditions: MKN-45, 336 h, read-out: TGI
MKN-45 [25] = assay: Antitumor activity against human MKN45 cells xenografted in nu/nu CD1 mouse model assessed as tumor growth inhibition at 50 mg/kg, po qd for 14 days; format: functional; conditions: MKN-45, 336 h, read-out: TGI
MKN-45 [26] = assay: Antitumor activity against human MKN45 cells xenografted in nu/nu CD1 mouse model assessed as tumor growth inhibition at 25 mg/kg, po qd for 14 days; format: functional; conditions: MKN-45, 336 h, read-out: TGI
[27] = Oral bioavailability in CD1 mouse at 20 mg/kg; format: ADME, organism-based; conditions: in vivo
[28] = Cmax in CD1 mouse at 20 mg/kg, po; format: ADME, organism-based; design: dose 20 mg/kg, route oral; conditions: in vivo
[29] = AUC (0 to last) in CD1 mouse at 20 mg/kg, po; format: ADME, organism-based; design: dose 20 mg/kg, route oral, time 0 - last; conditions: plasma

Structure (SMILES): C[C@@H](Oc1cc(-c2cnn(C3CCNCC3)c2)cnc1N)c1c(Cl)ccc(F)c1Cl [CRIZOTINIB]
- inhibition in vivo at 50 mg/kg (KARPAS-299 [1]): 96%
- Ratio IC50 (Homo sapiens [2]): 8
- Ratio IC50 (Homo sapiens [3]): > 600

Structure (SMILES): C[C@@H](Oc1c(N)ncc2c(C3=CCN(C(N)=O)CC3)coc12)c1c(Cl)ccc(F)c1Cl
- inhibition (Mus musculus [4]): Active
- TGI (KARPAS-299 [5]): inactive
- Ratio IC50 (Homo sapiens [3]): 3
- inhibition [6]: > 50%
- inhibition (Homo sapiens [7]): > 50%
- inhibition [8]: > 50%
- inhibition [9]: > 50%

Structure (SMILES): CC(=O)N1CC=C(c2coc3c(O[C@H](C)c4c(Cl)ccc(F)c4Cl)c(N)ncc23)CC1
- Papp [10]: 199 ×10⁻⁶ cm/s
- IC50 (MKN-45 [11]): 0.33 µM

Structure (SMILES): COc1ccc(Cl)c([C@@H](C)Oc2c(N)ncc3c(-c4cnn(C5CCNCC5)c4)coc23)c1Cl
- IC50 (MKN-45 [11]): 1.6 µM

Structure (SMILES): CC(Oc1c(N)ncc2c(-c3cnn(C4CCNCC4)c3)coc12)c1c(Cl)ccc(Cl)c1Cl (racemic)
- IC50 (MKN-45 [11]): 1.3 µM

Structure (SMILES): C[C@@H](Oc1c(N)ncc2c(C3CCNCC3)coc12)c1c(Cl)ccc(F)c1Cl
- IC50 (MKN-45 [11]): 3.1 µM

Structure (SMILES): C#CCC(Oc1c(N)ncc2c(-c3cnn(C4CCNCC4)c3)coc12)c1c(Cl)ccc(F)c1Cl (racemic)
- IC50 (Cytochrome P450 3A4): 1.6 µM
- IC50 (MKN-45 [11]): 0.36 µM

Structure (SMILES): C[C@@H](Oc1c(N)ncc2c(-c3ccncc3)coc12)c1c(Cl)ccc(F)c1Cl
- IC50 (MKN-45 [11]): 0.9 µM

Structure (SMILES): C[C@@H](Oc1c(N)ncc2c(-c3cn[nH]c3)coc12)c1c(Cl)ccc(F)c1Cl
- IC50 (MKN-45 [11]): 3.3 µM

Structure (SMILES): C[C@@H](Oc1c(N)ncc2c(-c3ccccn3)coc12)c1c(Cl)ccc(F)c1Cl
- IC50 (MKN-45 [11]): 4.6 µM

Structure (SMILES): CC(Oc1c(N)ncc2c(-c3cnn(C4CCNCC4)c3)coc12)c1cc(F)ccc1Cl (racemic)
- IC50 (MKN-45 [11]): 6.4 µM

Structure (SMILES): CNC(=O)N1CC=C(c2coc3c(O[C@H](C)c4c(Cl)ccc(F)c4Cl)c(N)ncc23)CC1
- IC50 (MKN-45 [11]): 0.19 µM

Structure (SMILES): CC(Oc1c(N)ncc2c(-c3cnn(C4CCNCC4)c3)coc12)c1cccc(F)c1Cl (racemic)
- IC50 (MKN-45 [11]): 5.1 µM

Structure (SMILES): C[C@H](Oc1c(N)ncc2c(-c3cnn(C4CCNCC4)c3)coc12)c1c(Cl)ccc(F)c1Cl
- IC50 (MKN-45 [11]): 4.5 µM

Structure (SMILES): C[C@@H](Oc1c(N)ncc2c(-c3cnn(C4CCNCC4)c3)coc12)c1c(Cl)ccc(F)c1Cl
- half-life [12]: 36 min
- Vd [13]: 12 L/kg
- clearance [14]: 227 mL/min/kg
- IC50 (MKN-45 [11]): 0.3 µM

Structure (SMILES): CC(Oc1c(N)ncc2c(-c3cnn(C4CCNCC4)c3)coc12)c1c(Br)ccc(F)c1Cl (racemic)
- IC50 (MKN-45 [11]): 0.51 µM

Structure (SMILES): CS(=O)(=O)O.C[C@@H](Oc1c(N)ncc2c(C3=CCN(C(N)=O)CC3)coc12)c1c(Cl)ccc(F)c1Cl
- Activity (Mus musculus [15]): 3%
- Activity (Mus musculus [16]): 3%
- Activity (Mus musculus [17]): 2%
- Activity (Mus musculus [18]): 6%
- Activity (MKN-45 [19]): 49%
- Activity (MKN-45 [20]): 27%
- Activity (MKN-45 [21]): 0%
- Activity (MKN-45 [22]): 0%
- inhibition in vivo at 200 mg/kg (MKN-45 [23]): 100%
- inhibition in vivo at 100 mg/kg (MKN-45 [24]): 100%
- inhibition in vivo at 50 mg/kg (MKN-45 [25]): 51%
- inhibition in vivo at 25 mg/kg (MKN-45 [26]): 13%
- bioavailability [27]: 83%
- Cmax [28]: 4800 nM
- AUC(0-t) [29]: 5420 ng·h/mL

Structure (SMILES): CC(Oc1c(N)ncc2c(-c3cnn(C4CCNCC4)c3)coc12)c1c(Cl)ccc(F)c1Cl (racemic)
- IC50 (Cytochrome P450 3A4): > 20 µM
- IC50 (MKN-45 [11]): 0.57 µM

Structure (SMILES): Nc1ncc2c(-c3cnn(C4CCNCC4)c3)coc2c1OCc1c(Cl)ccc(F)c1Cl
- IC50 (MKN-45 [11]): 8.6 µM

Structure (SMILES): C[C@@H](Oc1c(N)ncc2c(C3=CCN(C(=O)N(C)C)CC3)coc12)c1c(Cl)ccc(F)c1Cl
- IC50 (MKN-45 [11]): 0.51 µM

Structure (SMILES): CNC(=O)c1coc2c(O[C@H](C)c3c(Cl)ccc(F)c3Cl)c(N)ncc12
- IC50 (MKN-45 [11]): 3.5 µM

Structure (SMILES): CCC(Oc1c(N)ncc2c(-c3cnn(C4CCNCC4)c3)coc12)c1c(Cl)ccc(F)c1Cl (racemic)
- IC50 (MKN-45 [11]): 3.6 µM

Structure (SMILES): CC(Oc1c(N)ncc2c(-c3cnn(C4CCNCC4)c3)coc12)c1c(Cl)cc(Cl)cc1Cl (racemic)
- IC50 (MKN-45 [11]): 3.6 µM

Structure (SMILES): COC(=O)N1CC=C(c2coc3c(O[C@H](C)c4c(Cl)ccc(F)c4Cl)c(N)ncc23)CC1
- IC50 (MKN-45 [11]): 0.85 µM

Structure (SMILES): C[C@@H](Oc1c(N)ncc2c(-c3ccccc3)coc12)c1c(Cl)ccc(F)c1Cl
- IC50 (MKN-45 [11]): 11 µM

Structure (SMILES): CCCC(Oc1c(N)ncc2c(-c3cnn(C4CCNCC4)c3)coc12)c1c(Cl)ccc(F)c1Cl (racemic)
- IC50 (MKN-45 [11]): 2.7 µM

Structure (SMILES): CC(Oc1c(N)ncc2c(-c3cnn(C4CCNCC4)c3)coc12)c1c(Cl)c(F)cc(F)c1Cl (racemic)
- IC50 (MKN-45 [11]): 0.48 µM

Structure (SMILES): C[C@@H](Oc1c(N)ncc2c(C3=CCNCC3)coc12)c1c(Cl)ccc(F)c1Cl
- IC50 (MKN-45 [11]): 0.45 µM

Structure (SMILES): C[C@@H](Oc1c(N)ncc2c(-c3cnn(C4CCNCC4)c3)coc12)c1c(Cl)ccc(F)c1Cl.Cl.Cl.Cl.Cl
- bioavailability [27]: 35%
- Cmax [28]: 150 nM
- AUC(0-t) [29]: 509 ng·h/mL

Structure (SMILES): CC(=O)N1CCC(n2cc(-c3coc4c(O[C@H](C)c5c(Cl)ccc(F)c5Cl)c(N)ncc34)cn2)CC1
- Papp [10]: 318 ×10⁻⁶ cm/s
- IC50 (MKN-45 [11]): 0.67 µM

Structure (SMILES): C[C@@H](Oc1c(N)ncc2c(-c3cccnc3)coc12)c1c(Cl)ccc(F)c1Cl
- IC50 (MKN-45 [11]): 2.7 µM

Structure (SMILES): OCCn1cc(-c2cnc3nnn(Cc4ccc5ncccc5c4)c3n2)cn1
- Ratio IC50 (Homo sapiens [2]): 8
- Ratio IC50 (Homo sapiens [3]): > 600

Structure (SMILES): CC(Oc1c(N)ncc2c(-c3cnn(C4CCNCC4)c3)coc12)c1c(Cl)cccc1Cl (racemic)
- IC50 (MKN-45 [11]): 2 µM
